Reference: patent US20120289501A1, “Benzene-fused 6-membered oxygen-containing heterocyclic derivatives of bicyclic heteroaryls” (NOVARTIS AG, priority 2009, published 2012)

Biological target: IGF1R (Homo sapiens, UniProt P08069)
Assay: Cellular IGF-1R assay: inhibition of IGF1R phosphorylation in transduced Hek293 cells, capture ELISA (MSD)
Format: cell-based
Parameters: Hek293 cells transduced with the corresponding receptors; expressed in transfected cells; host or cells: Hek293 (Hek293-IGF1R)
Summary of the method: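 Serum-starved Hek293 cells transduced with IGF1R or InsR were pre-incubated 1 h with 3-fold dilutions from 10 μM (0.1% DMSO), then stimulated 10 min with 1.0 ng/μL IGF or 5.0 ng/μL insulin. pTyr1135/1136 (pINSR Tyr1150/1151) was read by MSD capture ELISA, normalised to stimulated vs unstimulated window; IC50 from 4-parameter fit.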

Chain of IGF1R (P08069 31-1367): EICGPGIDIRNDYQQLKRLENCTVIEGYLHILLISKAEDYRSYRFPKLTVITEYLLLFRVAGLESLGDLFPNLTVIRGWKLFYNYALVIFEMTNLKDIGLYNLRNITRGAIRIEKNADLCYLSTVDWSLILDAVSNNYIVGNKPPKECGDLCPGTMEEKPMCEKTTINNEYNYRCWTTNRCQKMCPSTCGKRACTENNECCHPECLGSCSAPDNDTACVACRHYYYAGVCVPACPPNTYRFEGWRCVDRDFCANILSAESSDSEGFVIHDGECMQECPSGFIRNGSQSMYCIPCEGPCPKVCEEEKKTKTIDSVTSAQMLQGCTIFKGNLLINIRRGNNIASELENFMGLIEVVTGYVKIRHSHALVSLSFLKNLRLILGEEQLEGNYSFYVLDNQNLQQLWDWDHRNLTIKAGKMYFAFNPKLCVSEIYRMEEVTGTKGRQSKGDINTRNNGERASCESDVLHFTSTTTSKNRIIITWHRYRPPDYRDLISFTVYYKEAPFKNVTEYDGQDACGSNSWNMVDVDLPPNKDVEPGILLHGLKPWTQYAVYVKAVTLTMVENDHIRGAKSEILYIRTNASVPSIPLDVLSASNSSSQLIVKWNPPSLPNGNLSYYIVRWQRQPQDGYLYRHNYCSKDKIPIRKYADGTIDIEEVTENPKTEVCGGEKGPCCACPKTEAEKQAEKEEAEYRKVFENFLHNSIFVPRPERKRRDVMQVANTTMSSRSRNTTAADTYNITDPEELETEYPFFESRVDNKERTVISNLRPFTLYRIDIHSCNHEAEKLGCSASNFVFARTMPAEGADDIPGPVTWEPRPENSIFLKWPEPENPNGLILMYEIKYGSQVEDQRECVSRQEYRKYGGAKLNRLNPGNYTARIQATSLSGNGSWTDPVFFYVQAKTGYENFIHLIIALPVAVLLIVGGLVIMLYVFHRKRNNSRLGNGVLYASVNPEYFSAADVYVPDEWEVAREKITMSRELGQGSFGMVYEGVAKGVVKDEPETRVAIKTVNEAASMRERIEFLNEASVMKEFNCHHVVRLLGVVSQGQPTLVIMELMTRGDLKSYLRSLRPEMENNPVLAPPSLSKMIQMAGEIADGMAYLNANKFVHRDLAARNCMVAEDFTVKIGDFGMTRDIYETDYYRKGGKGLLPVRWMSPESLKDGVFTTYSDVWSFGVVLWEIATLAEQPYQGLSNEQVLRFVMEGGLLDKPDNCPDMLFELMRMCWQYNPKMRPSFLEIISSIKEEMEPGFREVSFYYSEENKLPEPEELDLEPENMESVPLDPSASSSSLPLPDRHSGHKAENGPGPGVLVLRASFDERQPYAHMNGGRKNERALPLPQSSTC

IC50: 30 to 103 nM
Compound: Nc1ncnc2c1c(-c1ccc3c(c1)OC(c1ccccc1)CC3)cn2[C@H]1C[C@H](CO)C1 (mixture of isomers) [Example 2, (R,S)-{Trans-3-[4-amino-5-(2-phenyl-chroman-7-yl)-pyrrolo[2,3-d]pyrimidin-7-yl]-cyclobutyl}-methanol]
